{
  "source": "patent US11491091B2",
  "about": "“Cooling product” (SYMRISE AG, priority 2010, dated 2022)",
  "tested_on": "skin of test persons",
  "assay": "Cooling effect on the skin as perceived by test persons (panel test)",
  "type": "in vivo",
  "conditions": "in each formulation the proportion of 1,2-pentanediol replaced with 1,2-hexanediol at a ratio of 5:3",
  "excerpt": "In case of doubt, the perceptibility of the cooling effect is to be determined by means of a panel test wherein the corresponding mixture is applied onto the skin of at least 10 test persons. If in the course of this, preferably in combination with a blind test, 90% of the test persons confirm a cooling effect, then this will preferably correspond to the criteria for the presence of a corresponding effect. Topical applications in terms of the present text are applications where the corresponding active substance or the combination of active substances is brought into contact with the skin or with a mucous membrane. It is especially preferred that the evaluation of a cooling effect and its enhancement is made analog to the application example presented below. […] Provided the corresponding formulations also contained trans-4-tert. butylcyclohexanol, the cooling effect was even further enhanced compared to formulations without this compound.",
  "data": [
    {"smiles": "CCCCC(O)CO", "note": "(stereo not shown) [1,2-hexanediol]", "values": [
      {"measurement": "cooling effect enhancement after replacement of 1,2-pentanediol", "result": "comparable effects are achieved"}
    ]}
  ]
}
